Active and inactive are the calls of the source. The calls are words filed in the database; no cut-off is given here.
Experiments:
Autotaxin [1] = molecular target: Autotaxin (Mus musculus, UniProt Q9R1E6); experiment: Inhibition of ATX in mouse plasma after 2 hrs by LC-MS/MS analysis; format: cell-free
Autotaxin (Mus musculus) [2] = molecular target: Autotaxin (Mus musculus) (UniProt Q9R1E6); experiment: Inhibition of ATX in mouse plasma assessed as reduction in LPA prodution at 10 uM after 3 hrs by LC-MS/MS analysis; format: cell-free
Mus musculus = experiment: In vivo inhibition of ATX in C57BL/6J mouse assessed as reduction in serum LPA level at 4 mg/kg, iv after 15 mins to 3 hrs by LC-MS/MS analysis; format: functional, organism-based
Autotaxin (Mus musculus) [3] = molecular target: Autotaxin (Mus musculus) (UniProt Q9R1E6); experiment: Inhibition of ATX in mouse plasma assessed as reduction in LPA prodution after 3 hrs by LC-MS/MS analysis; format: cell-free
Danio rerio = species: Danio rerio; experiment: Inhibition of AB/TU zebra fish ATX expressed in one-cell stage zebra fish embryos assessed as rescue of carida bifida phenotype at 10 uM incubated for 12 to 24 hrs post fertilization in presence of Ki16425 by whole mount in situ hybridization based microscopic analysis relative to control
Autotaxin (Mus musculus) [4] = molecular target: Autotaxin (Mus musculus) (UniProt Q9R1E6); experiment: Inhibition of mouse ATX expressed in one-cell stage zebra fish embryos assessed as rescue of cardia bifida phenotype at 10 uM incubated for 12 to 24 hrs post fertilization in presence of Ki16425 by whole mount in situ hybridization based microscopic analysis relative to control
Autotaxin [5] = molecular target: T1, Autotaxin (Homo sapiens, UniProt Q13822); experiment: Inhibition of ATX (unknown origin) expressed in human HEK293 cells using TG-mTMP as substrate after 2 hrs by fluorescence based plate reader assay
Autotaxin [6] = molecular target: T1, Autotaxin; experiment: Inhibition of ATX (unknown origin)-mediated cell migration in human MDA-MB-231 cells assessed as reduction in cell motility after 3 hrs by Diff-Quick staining based microplate reader analysis

Cc1cc(O)n2cc(-c3ccccc3)nc2n1
IC50 (Autotaxin [1]; read-out: IC50): > 50000 nM | inhibition (Autotaxin (Mus musculus) [2]): inactive

CCOC(=O)Cn1c(C)cc(=O)n2cc(-c3cccc([N+](=O)[O-])c3)nc12
IC50 (Autotaxin [1]; read-out: IC50): 500 nM

CCCCCn1c(C)cc(=O)n2cc(-c3ccc(Cl)cc3)nc12
IC50 (Autotaxin [1]; read-out: IC50): 9.4 nM | inhibition (Autotaxin (Mus musculus) [2]): Active | inhibition (Mus musculus): Active | inhibition (Autotaxin (Mus musculus) [3]): Dose-dependent effect

CCOC(=O)Cn1c(C)cc(=O)n2cc(-c3cccc(Br)c3)nc12
IC50 (Autotaxin [1]; read-out: IC50): 4000 nM

CCC(=O)Cn1c(C)cc(=O)n2cc(-c3ccc(Cl)cc3)nc12
IC50 (Autotaxin [1]; read-out: IC50): 37 nM | inhibition (Autotaxin (Mus musculus) [2]): Active

CCCCCn1c(C)cc(=O)n2cc(-c3ccc(F)cc3)nc12
IC50 (Autotaxin [1]; read-out: IC50): 71 nM | inhibition (Autotaxin (Mus musculus) [2]): Active

CCN1CCN(C2=NC(=O)/C(=C/c3ccc(Cl)cc3)S2)CC1
inhibition (Danio rerio): 10% | inhibition (Autotaxin (Mus musculus) [4]): 95%

Cc1cc(O)n2cc(-c3ccc([N+](=O)[O-])cc3)nc2n1
IC50 (Autotaxin [1]; read-out: IC50): > 50000 nM | inhibition (Autotaxin (Mus musculus) [2]): inactive

CCCCn1c(C)cc(=O)n2cc(-c3ccc(Cl)cc3)nc12
IC50 (Autotaxin [1]; read-out: IC50): 15 nM | inhibition (Autotaxin (Mus musculus) [2]): Active

CN1CCN(C2=NC(=O)/C(=C/c3ccc(Cl)c(Cl)c3)S2)CC1
IC50 (Autotaxin [5]): 180 nM | inhibition (Danio rerio): 3% | inhibition (Autotaxin (Mus musculus) [4]): 96%

Cc1cc(=O)n2cc(-c3ccc(Cl)cc3)nc2n1Cc1ccccc1
IC50 (Autotaxin [1]; read-out: IC50): 31 nM | inhibition (Autotaxin (Mus musculus) [2]): Active

CCOC(=O)Cn1c(C)cc(=O)n2cc(-c3ccc(F)cc3)nc12
IC50 (Autotaxin [1]; read-out: IC50): 31 nM | inhibition (Autotaxin (Mus musculus) [2]): inactive

O=C1N=C(N2CCN(Cc3cccc(B(O)O)c3)CC2)S/C1=C\c1ccc(Cl)c(Cl)c1
IC50 (Autotaxin [5]): 13 nM | inhibition (Autotaxin (Mus musculus) [4]): 98%

CCCCCn1c(C)cc(=O)n2cc(-c3ccc(C)cc3)nc12
IC50 (Autotaxin [1]; read-out: IC50): 44 nM | inhibition (Autotaxin (Mus musculus) [2]): Active

Cc1nc2ccccn2c(=O)c1Cc1ccc(Cl)cc1
inhibition (Danio rerio): 6% | inhibition (Autotaxin (Mus musculus) [4]): 91%

COC(=O)Cn1c(C)cc(=O)n2cc(-c3ccc(Cl)cc3)nc12
IC50 (Autotaxin [1]; read-out: IC50): 26 nM | inhibition (Autotaxin (Mus musculus) [2]): inactive

CCn1c(C)cc(=O)n2cc(-c3ccc(Cl)cc3)nc12
IC50 (Autotaxin [1]; read-out: IC50): 40 nM

CCOC(=O)Cn1c(C)cc(=O)n2cc(-c3ccc([N+](=O)[O-])cc3)nc12
IC50 (Autotaxin [1]; read-out: IC50): 14 nM

CCOC(=O)Cn1c(C)cc(=O)n2cc(-c3ccc(Br)cc3)nc12
IC50 (Autotaxin [1]; read-out: IC50): 13 nM | inhibition (Autotaxin (Mus musculus) [2]): inactive

CCCCCCCCCn1c(C)cc(=O)n2cc(-c3ccc(Cl)cc3)nc12
IC50 (Autotaxin [1]; read-out: IC50): 120 nM

CCOC(=O)Cn1c(C)cc(=O)n2cc(-c3cccc(N)c3)nc12
IC50 (Autotaxin [1]; read-out: IC50): > 10000 nM

Cc1ccc(-c2cn3c(O)cc(C)nc3n2)cc1
IC50 (Autotaxin [1]; read-out: IC50): > 50000 nM | inhibition (Autotaxin (Mus musculus) [2]): inactive

CCOC(=O)Cn1c(C)cc(=O)n2cc(-c3ccccc3)nc12
IC50 (Autotaxin [1]; read-out: IC50): 72 nM

Cc1cc(=O)n2cc(-c3ccc(Cl)cc3)nc2n1CC(=O)OCc1ccccc1
IC50 (Autotaxin [1]; read-out: IC50): 56 nM | inhibition (Autotaxin (Mus musculus) [2]): inactive

CCCCCCCCn1c(C)cc(=O)n2cc(-c3ccc(Cl)cc3)nc12
IC50 (Autotaxin [1]; read-out: IC50): 57 nM

Cc1cc(=O)n2cc(-c3ccc(Cl)cc3)nc2n1CC[N+](C)(C)C
IC50 (Autotaxin [1]; read-out: IC50): > 50000 nM

CCCn1c(C)cc(=O)n2cc(-c3ccc(Cl)cc3)nc12
IC50 (Autotaxin [1]; read-out: IC50): 21 nM

CCCCCCCn1c(C)cc(=O)n2cc(-c3ccc(Cl)cc3)nc12
IC50 (Autotaxin [1]; read-out: IC50): 16 nM | inhibition (Autotaxin (Mus musculus) [2]): Active

CCOC(=O)Cn1c(C)cc(=O)n2cc(-c3ccc(OC)cc3)nc12
IC50 (Autotaxin [1]; read-out: IC50): 49 nM | inhibition (Autotaxin (Mus musculus) [2]): inactive

CCCCCCn1c(C)cc(=O)n2cc(-c3ccc(Cl)cc3)nc12
inhibition (Autotaxin [6]): Dose-dependent effect | IC50 (Autotaxin [1]; read-out: IC50): 9.9 nM | inhibition (Autotaxin (Mus musculus) [2]): Active | inhibition (Mus musculus): Active | inhibition (Autotaxin (Mus musculus) [3]): Dose-dependent effect

Cc1cc(O)n2cc(-c3ccc(F)cc3)nc2n1
IC50 (Autotaxin [1]; read-out: IC50): > 50000 nM | inhibition (Autotaxin (Mus musculus) [2]): inactive

CCOC(=O)Cn1c(C)cc(=O)n2cc(-c3ccc(N)cc3)nc12
IC50 (Autotaxin [1]; read-out: IC50): > 10000 nM

Cc1cc(O)n2cc(-c3ccc(Br)cc3)nc2n1
IC50 (Autotaxin [1]; read-out: IC50): > 50000 nM | inhibition (Autotaxin (Mus musculus) [2]): inactive

CCOC(=O)Cn1c(C)cc(=O)n2cc(-c3ccc(Cl)cc3)nc12
IC50 (Autotaxin [1]; read-out: IC50): 3.3 nM | IC50 (Autotaxin [5]): 4.2 nM | inhibition (Autotaxin (Mus musculus) [2]): inactive | inhibition (Danio rerio): 8% | inhibition (Autotaxin (Mus musculus) [4]): 93%

CC(=O)OCn1c(C)cc(=O)n2cc(-c3ccc(Cl)cc3)nc12
IC50 (Autotaxin [1]; read-out: IC50): 30 nM

COc1cc(C)nc2nc(-c3ccc(Cl)cc3)cn12
IC50 (Autotaxin [1]; read-out: IC50): > 50000 nM

CCOC(=O)Cn1c(C)cc(=O)n2cc(-c3ccc(I)cc3)nc12
IC50 (Autotaxin [1]; read-out: IC50): 19 nM

Cc1cc(=O)n2cc(-c3ccc(Cl)cc3)nc2n1C
IC50 (Autotaxin [1]; read-out: IC50): 180 nM

CCNC(=O)Cn1c(C)cc(=O)n2cc(-c3ccc(Cl)cc3)nc12
IC50 (Autotaxin [1]; read-out: IC50): 370 nM | inhibition (Autotaxin (Mus musculus) [2]): inactive

Cc1cc(=O)n2cc(-c3ccc(Cl)cc3)nc2n1CC(=O)OC(C)(C)C
IC50 (Autotaxin [1]; read-out: IC50): 90 nM | inhibition (Autotaxin (Mus musculus) [2]): inactive

CCOCCn1c(C)cc(=O)n2cc(-c3ccc(Cl)cc3)nc12
IC50 (Autotaxin [1]; read-out: IC50): 11 nM | inhibition (Autotaxin (Mus musculus) [2]): Active

Cc1cc(O)n2cc(-c3ccc(Cl)c(Cl)c3)nc2n1
IC50 (Autotaxin [1]; read-out: IC50): > 50000 nM | inhibition (Autotaxin (Mus musculus) [2]): inactive

Cc1cc(O)n2cc(-c3ccc(Cl)cc3)nc2n1
IC50 (Autotaxin [1]; read-out: IC50): > 50000 nM | inhibition (Autotaxin (Mus musculus) [2]): inactive

Cc1cc(=O)n2cc(-c3ccc(Cl)cc3)nc2n1CCS(=O)(=O)O
IC50 (Autotaxin [1]; read-out: IC50): > 50000 nM

Cc1cc(=O)n2cc(-c3ccc(Cl)cc3)nc2n1C1CCCCC1
IC50 (Autotaxin [1]; read-out: IC50): 73 nM | inhibition (Autotaxin (Mus musculus) [2]): Active

COc1ccc(-c2cn3c(O)cc(C)nc3n2)cc1
IC50 (Autotaxin [1]; read-out: IC50): > 50000 nM | inhibition (Autotaxin (Mus musculus) [2]): inactive

Cc1cc(Cl)n2cc(-c3ccc(Cl)cc3)nc2n1
IC50 (Autotaxin [1]; read-out: IC50): > 50000 nM

CCCCCCCCCCCCCCCC(=O)n1c(C)cc(=O)n2cc(-c3ccc(Cl)cc3)nc12
IC50 (Autotaxin [1]): Nd(Insoluble)

CCCCCn1c(C)cc(=O)n2cc(-c3ccc(Br)cc3)nc12
IC50 (Autotaxin [1]; read-out: IC50): 23 nM | inhibition (Autotaxin (Mus musculus) [2]): Active | inhibition (Autotaxin (Mus musculus) [3]): Dose-dependent effect

CCOC(=O)Cn1c(C)cc(=O)n2cc(-c3ccc(Cl)c(Cl)c3)nc12
IC50 (Autotaxin [1]; read-out: IC50): 79 nM

Cc1cc(O)n2cc(-c3cccc([N+](=O)[O-])c3)nc2n1
IC50 (Autotaxin [1]; read-out: IC50): > 50000 nM | inhibition (Autotaxin (Mus musculus) [2]): inactive

Cc1cc(O)n2cc(-c3cccc(Br)c3)nc2n1
IC50 (Autotaxin [1]; read-out: IC50): > 50000 nM | inhibition (Autotaxin (Mus musculus) [2]): inactive

CCN(C)C(=O)Cn1c(C)cc(=O)n2cc(-c3ccc(Cl)cc3)nc12
IC50 (Autotaxin [1]; read-out: IC50): 220 nM

Cc1cc(=O)n2cc(-c3ccc(Cl)cc3)nc2n1CC(=O)O
IC50 (Autotaxin [1]; read-out: IC50): 7700 nM | inhibition (Autotaxin (Mus musculus) [2]): inactive

CCCCCCCCCC(=O)n1c(C)cc(=O)n2cc(-c3ccc(Cl)cc3)nc12
IC50 (Autotaxin [1]; read-out: IC50): 160 nM

CCCCCCCN/C=C1\C(=O)N(c2ccc(F)cc2)C(=O)N=C1O
inhibition (Danio rerio): 1% | inhibition (Autotaxin (Mus musculus) [4]): 94%

Reference: ChEMBL document CHEMBL4402579, “Identification of Potent In Vivo Autotaxin Inhibitors that Bind to Both Hydrophobic Pockets and Channels in the Catalytic Domain” (J Med Chem, 2020)
